According to ChEMBL document CHEMBL3885861, “Open TG-GATES”:

Organism: Rattus norvegicus
Experiment: Open TG-GATES - Regimen: Daily Repeat
Format: toxicity, organism-based, Sprague-Dawley
Parameters: regimen Daily Repeat, gender Male, age 6 weeks
Conditions: in vivo, po, 150 mg/kg, route gavage, dose level High; for APTT / Bas / Eos / Fbg / Hb / Ht / Lym / MCHC / MCV / Mono / Neu / PT / Plat / RBC / Ret / WBC: tissue Blood; for KIDNEY_L / KIDNEY_R / KIDNEY_TOTAL: tissue Kidney; for LIVER: tissue Liver; for ALP / ALT / AST / BUN / CRE / Ca / Cl / DBIL / GLC / IP / K / LDH / Na / PL / RALB / TBIL / TC / TG / TP / gamma-GTP: tissue Plasma

**Q.** What does the source list for `C1CCC(C(CC2CCCCN2)C2CCCCC2)CC1` (centres undefined) [PERHEXILINE]?
**A.** TERMINAL_BW (72 h, time 3 day): 212.7 g; APTT (72 h, time 3 day): 22.7 s; Bas (72 h, time 3 day): 0%; Eos (72 h, time 3 day): 0.8%; Fbg (72 h, time 3 day): 312.8 mg/dL; Hb (72 h, time 3 day): 13.9 g/dL; Ht (72 h, time 3 day): 41.3%; Lym (72 h, time 3 day): 80%; MCHC (72 h, time 3 day): 33.8%; MCV (72 h, time 3 day): 61.4 fL; Mono (72 h, time 3 day): 1.8%; Neu (72 h, time 3 day): 16.5%; PT (72 h, time 3 day): 16.8 s; Plat (72 h, time 3 day): 130.8 x10_4/uL; RBC (72 h, time 3 day): 673.2 x10_4/ul; Ret (72 h, time 3 day): 4.4%; WBC (72 h, time 3 day): 100 x10_2/uL; KIDNEY_L (72 h, time 3 day): 1 g; KIDNEY_R (72 h, time 3 day): 0.9 g; KIDNEY_TOTAL (72 h, time 3 day): 1.9 g; LIVER (72 h, time 3 day): 9.8 g; ALP (72 h, time 3 day): 1606.6 IU/L; ALT (72 h, time 3 day): 43.6 IU/L; AST (72 h, time 3 day): 69 IU/L; BUN (72 h, time 3 day): 15.4 mg/dL; CRE (72 h, time 3 day): 0.2 mg/dL; Ca (72 h, time 3 day): 11 mg/dL; Cl (72 h, time 3 day): 106.6 meq/L; DBIL (72 h, time 3 day): 0.002 mg/dL; GLC (72 h, time 3 day): 187.2 mg/dL; IP (72 h, time 3 day): 7.4 mg/dL; K (72 h, time 3 day): 4 meq/L; LDH (72 h, time 3 day): 267.2 IU/L; Na (72 h, time 3 day): 142.4 meq/L; PL (72 h, time 3 day): 150 mg/dL; RALB (72 h, time 3 day): 3 g/dL; TBIL (72 h, time 3 day): 0.006 mg/dL; TC (72 h, time 3 day): 75.6 mg/dL; TG (72 h, time 3 day): 107.8 mg/dL; TP (72 h, time 3 day): 5.4 g/dL; gamma-GTP (72 h, time 3 day): 1 IU/L; TERMINAL_BW ([…], time 7 day): 255.5 g; TERMINAL_BW ([…], time 14 day): 291.9 g; TERMINAL_BW ([…], time 28 day): 322.6 g; APTT ([…], time 7 day): 23.3 s; Bas ([…], time 7 day): 0%; Eos ([…], time 7 day): 0.6%; Fbg ([…], time 7 day): 313.8 mg/dL; Hb ([…], time 7 day): 14.3 g/dL; Ht ([…], time 7 day): 42.2%; Lym ([…], time 7 day): 79%; MCHC ([…], time 7 day): 33.9%; MCV ([…], time 7 day): 63.4 fL; Mono ([…], time 7 day): 1.4%; Neu ([…], time 7 day): 17.8%; PT ([…], time 7 day): 15.5 s; Plat ([…], time 7 day): 120.2 x10_4/uL; RBC ([…], time 7 day): 665.4 x10_4/ul; Ret ([…], time 7 day): 5.2%; WBC ([…], time 7 day): 103.4 x10_2/uL; APTT ([…], time 14 day): 22.3 s; Bas ([…], time 14 day): 0%; Eos ([…], time 14 day): 0.8%; Fbg ([…], time 14 day): 311 mg/dL; Hb ([…], time 14 day): 14.4 g/dL; Ht ([…], time 14 day): 41.8%; Lym ([…], time 14 day): 72%; MCHC ([…], time 14 day): 34.4%; MCV ([…], time 14 day): 59.9 fL; Mono ([…], time 14 day): 2.2%; Neu ([…], time 14 day): 24%; PT ([…], time 14 day): 15.8 s; Plat ([…], time 14 day): 115.8 x10_4/uL; RBC ([…], time 14 day): 697.8 x10_4/ul; Ret ([…], time 14 day): 4.7%; WBC ([…], time 14 day): 121.2 x10_2/uL; APTT ([…], time 28 day): 23.3 s; Bas ([…], time 28 day): 0%; Eos ([…], time 28 day): 0.6%; Fbg ([…], time 28 day): 313.8 mg/dL; Hb ([…], time 28 day): 14.3 g/dL; Ht ([…], time 28 day): 42.2%; Lym ([…], time 28 day): 79%; MCHC ([…], time 28 day): 33.9%; MCV ([…], time 28 day): 63.4 fL; Mono ([…], time 28 day): 1.4%; Neu ([…], time 28 day): 17.8%; PT ([…], time 28 day): 15.5 s; Plat ([…], time 28 day): 120.2 x10_4/uL; RBC ([…], time 28 day): 665.4 x10_4/ul; Ret ([…], time 28 day): 5.2%; WBC ([…], time 28 day): 103.4 x10_2/uL; KIDNEY_L ([…], time 7 day): 1.1 g; KIDNEY_R ([…], time 7 day): 1.2 g; KIDNEY_TOTAL ([…], time 7 day): 2.3 g; KIDNEY_L ([…], time 14 day): 1.2 g; KIDNEY_R ([…], time 14 day): 1.2 g; KIDNEY_TOTAL ([…], time 14 day): 2.4 g; KIDNEY_L ([…], time 28 day): 1.2 g; KIDNEY_R ([…], time 28 day): 1.2 g; KIDNEY_TOTAL ([…], time 28 day): 2.5 g; LIVER ([…], time 7 day): 11.9 g; LIVER ([…], time 14 day): 13 g; LIVER ([…], time 28 day): 12.8 g; ALP ([…], time 7 day): 1641 IU/L; ALT ([…], time 7 day): 35 IU/L; AST ([…], time 7 day): 61.8 IU/L; BUN ([…], time 7 day): 17.8 mg/dL; CRE ([…], time 7 day): 0.2 mg/dL; Ca ([…], time 7 day): 10.6 mg/dL; Cl ([…], time 7 day): 106.2 meq/L; DBIL ([…], time 7 day): 0 mg/dL; GLC ([…], time 7 day): 197.6 mg/dL; IP ([…], time 7 day): 8.1 mg/dL; K ([…], time 7 day): 4.3 meq/L; LDH ([…], time 7 day): 200.4 IU/L; Na ([…], time 7 day): 142.8 meq/L; PL ([…], time 7 day): 158.4 mg/dL; RALB ([…], time 7 day): 3 g/dL; TBIL ([…], time 7 day): 0.006 mg/dL; TC ([…], time 7 day): 76 mg/dL; TG ([…], time 7 day): 138.4 mg/dL; TP ([…], time 7 day): 5.7 g/dL; gamma-GTP ([…], time 7 day): 1.4 IU/L; ALP ([…], time 14 day): 1470.2 IU/L; ALT ([…], time 14 day): 38 IU/L; AST ([…], time 14 day): 63.2 IU/L; BUN ([…], time 14 day): 18.2 mg/dL; CRE ([…], time 14 day): 0.2 mg/dL; Ca ([…], time 14 day): 10.7 mg/dL; Cl ([…], time 14 day): 105.8 meq/L; DBIL ([…], time 14 day): 0.004 mg/dL; GLC ([…], time 14 day): 206.6 mg/dL; IP ([…], time 14 day): 7.2 mg/dL; K ([…], time 14 day): 4.2 meq/L; LDH ([…], time 14 day): 180.2 IU/L; Na ([…], time 14 day): 143 meq/L; PL ([…], time 14 day): 151.8 mg/dL; RALB ([…], time 14 day): 3 g/dL; TBIL ([…], time 14 day): 0.008 mg/dL; TC ([…], time 14 day): 70 mg/dL; TG ([…], time 14 day): 154.6 mg/dL; TP ([…], time 14 day): 5.8 g/dL; gamma-GTP ([…], time 14 day): 1.2 IU/L; ALP ([…], time 28 day): 1254 IU/L; ALT ([…], time 28 day): 39.8 IU/L; AST ([…], time 28 day): 62.8 IU/L; BUN ([…], time 28 day): 16 mg/dL; CRE ([…], time 28 day): 0.2 mg/dL; Ca ([…], time 28 day): 10.4 mg/dL; Cl ([…], time 28 day): 107.2 meq/L; DBIL ([…], time 28 day): 0 mg/dL; GLC ([…], time 28 day): 199.2 mg/dL; IP ([…], time 28 day): 6.4 mg/dL; K ([…], time 28 day): 4 meq/L; LDH ([…], time 28 day): 162.8 IU/L; Na ([…], time 28 day): 144.2 meq/L; PL ([…], time 28 day): 148 mg/dL; RALB ([…], time 28 day): 3 g/dL; TBIL ([…], time 28 day): 0.006 mg/dL; TC ([…], time 28 day): 68 mg/dL; TG ([…], time 28 day): 150.4 mg/dL; TP ([…], time 28 day): 5.9 g/dL; gamma-GTP ([…], time 28 day): 1 IU/L
